{"source": "patent US6355785B1", "about": "“Guanosine-rich oligonucleotide integrase inhibitors” (Aronex Pharmaceuticals, Inc., priority 1993, dated 2002)", "key": {"HIV-1DV": {"system": "HIV-1DV", "experiment": "Analysis of HIV-1 RNA and DNA in single cycle assays, SUP T1", "type": "cell-based"}, "SIVMAC251": {"system": "SIVMAC251", "type": "cell-based, simian immunodeficiency virus", "details": "SIVMAC251, MT4; read-out: IC50 virus production"}, "[1]": {"details": "cynomolgus monkey, up to 236 ug/mL"}, "[2]": {"details": "cynomolgus monkey, in vivo"}, "[3]": {"system": "CD4- and gp120-mediated cell fusion", "experiment": "cells", "type": "cell-based"}, "HIV-1IIIB": {"system": "HIV-1IIIB", "experiment": "Long term suppression assay, MT-4 cells", "type": "cell-based"}, "[4]": {"target": "HIV-1 integrase (wild-type and deletion mutants) (Human immunodeficiency virus type 1 group M subtype B, UniProt P12497)", "experiment": "UV crosslinking DNA binding experiments", "method": "UV crosslinking experiments. The method used has been described by Engleman et al. Engelman, et al., J. Virol. 68, 5911-5917 (1994). Briefly, integrase (at the indicated concentration) was incubated with substrate in reaction buffer as above for 5 minutes at 30° C. Reactions were then irradiated with a UV transilluminator (254 nm wavelength) from 3 cm above (2.4 mW/cm2) at room temperature for 10 minutes. An equal volume (16 μL) of 2X SDS-PAGE buffer (100 mM Tris, pH 6.8, 4% 2-mercaptoethanol, 4% SDS, 0.2% bromophenol blue, 20% glycerol) was added to each reaction. Twenty μL aliquots were heated at 95° C. for 3 minutes prior to loading on a 12% or 18% SDS-polyacrylamide gel. The gel was run at 120 V for 1.5 hours, dried, and exposed in a Phosphorlmager cassette. […] For the competition experiments (FIG. 29), integrase (200 nM) was preincubated with either the radiolabeled viral DNA substrate (20 nM) or T30177 (20 nM) for 5 minutes at 30° C. prior to the addition of competitor DNA at the indicated concentration."}, "HIV-1 integrase IN1-288": {"target": "T1, HIV-1 integrase IN1-288 (Human immunodeficiency virus type 1 group M subtype B, UniProt P12497)", "T1 construct": "purchased gift of Drs; T. Jenkins and R. Craigie, NIDDK, NIH (not bought; the expression system was also provided)", "experiment": "Disintegration assay, wild-type integrase", "type": "biochemical"}, "[5]": {"experiment": "Thermal denaturation of oligomer fold (UV, Tm)", "type": "physicochemical"}, "[6]": {"set-up": "species or system cynomolgus monkeys", "details": "cynomolgus monkey, in vivo", "method": "AR177 plasma HPLC analysis. Blood was taken for plasma analysis of AR177 just prior to, and at 5, 30 and 240 minutes following administration of doses 1 and 12. The plasma fraction was obtained by low speed centrifugation of blood, and stored at −20° C. until analyzed for the AR177 concentration. Plasma AR177 concentrations were assayed using an anion-exchange HPLC method on a Waters HPLC system with a 626 pump, 996 photodiode array detector, 717 autosampler and Millennium system software controlled by an NEC Image 466 computer. Buffer A was 0.1 M Tris base, 20% methanol, pH 12, and Buffer B was 0.1 M Tris base, 1.0 M NaBr, pH12. anion-exchange column tGen-Pak Fax column) was equilibrated at 80% buffer A/20% buffer B for 30 minutes before each HPLC run. Fifty microliters of plasma were analyzed per run. The elusion conditions were: a) five-minute isocratic run at 80% A/20% B, during which the majority of the plasma proteins eluted, b) 30-minute linear gradient to 30% A/70% B during which the AR177 eluted, c) five-minute isocratic run at 30% A/70% B. d) one minute linear gradient to 100% B. e) two- minute run at 100% B for initial column cleanup, and fl two-minute linear gradient to 70% A/30% B for the initial step in the clean-up method for HPLC column clean-up. […]"}, "[7]": {"set-up": "species or system cynomolgus monkeys", "details": "cynomolgus monkey, in vivo", "method": "Serum chemistry parameters. Serum chemistry was determined pre-study, on day 24 (one day after the 12th dose), and on day 37 in the recovery monkeys. The following were determined sodium, potassium, chloride, carbon dioxide, total bilirubin, direct bilirubin, indirect bilirubin alkaline phosphatase, lactate dehydrogenase, aspartate aminotransferase, alanine aminotransferase, gammaglutamyltransferase, calcium, phosphorus, glucose, urea nitrogen, creatinine, uric acid total protein, albumin, globulin, cholesterol and triglycerides. Serum chemistry was determined at Sierra Nevada Laboratories (Reno, Nev.).", "remark": "listed apart in the source"}}, "note": "Entries after “also recorded” stand apart in the source; their conditions may differ. Marks after values point to notes of the source that are not given here."}
{"compound": "Cc1cn([C@H]2C[C@H](N=[N+]=[N-])[C@@H](CO)O2)c(=O)[nH]c1=O", "note": "[AZT, 3′-azido-3′-deoxythymidine]", "values": [{"measurement": "viral DNA synthesis (PCR)", "setting": "HIV-1DV; 36 hr post-infection", "result": "marked decrease in viral DNA synthesis"}, {"measurement": "HIV-1 specific transcript (RT-PCR)", "setting": "HIV-1DV; drug added at zero hours", "result": "viral mRNA was still being produced"}]}
{"compound": "5′-gtggtgggtgggtgggt-3′ [T30177] (GTGGTGGGTGGGTGGGT; phosphorothioate termini, further chemistry not given here) [pPT version of parent compound I100-15, 17 mer]", "values": [{"measurement": "IC50", "setting": "SIVMAC251", "result": "1500 ± 1200", "unit": "nM"}, {"measurement": "complement CH50", "setting": "[1]", "result": "no effect"}, {"measurement": "histopathology of organs and tissues", "setting": "[2]", "result": "No clearly treatment-related histopathologic changes"}, {"measurement": "organ weight", "setting": "[2]", "result": "no effects on organ weight"}, {"measurement": "fusion IC50 relative to virus infection assay IC50", "setting": "[3]", "result": "approximately 100 fold"}, {"measurement": "IC50", "setting": "[3]; read-out: IC50 CD4- and gp120-mediated cell fusion", "result": 1000, "unit": "nM"}]}
{"compound": "5′-gtggtgggtgggtgggt-3′ (GTGGTGGGTGGGTGGGT; phosphorothioate termini, further chemistry not given here) [T30177, pPT version of parent compound I100-15, 17 mer]", "values": [{"measurement": "viral DNA (PCR) 11 days after removal of drug", "setting": "HIV-1IIIB", "result": "unable to detect the presence of viral DNA; also recorded: no detectable viral cDNA"}, {"measurement": "protection of treated cells from reinfection with HIV-1IIIB", "setting": "HIV-1IIIB; 100-fold over IC50, 4 days", "result": "no protection of cells from the second round of viral infection"}, {"measurement": "IC50 virus-induced cytopathogenicity", "setting": "HSV-2 (G); HSV-2 (G)", "result": ">200", "unit": "µg/mL"}, {"measurement": "MCC minimum concentration altering normal cell morphology", "setting": "HSV-2 (G); HSV-2 (G) assay", "result": 400, "unit": "μg/mL"}, {"measurement": "competition of integrase complex by competitor DNA", "setting": "[4]; competitor in 500-fold excess", "result": "could not be competed off"}, {"measurement": "inhibition of integrase binding to radiolabeled U5 DNA substrate", "setting": "[4]; enzyme preincubated with oligo", "result": "inhibited"}, {"measurement": "concentration required for DNA-protein complex formation", "setting": "[4]; radiolabeled T30177", "result": "~20", "unit": "nM"}, {"measurement": "binding of IN1-55 (zinc finger domain)", "setting": "[4]; zinc alone", "result": "able to bind"}, {"measurement": "IC50", "setting": "HIV-1 integrase IN1-288", "result": 270, "unit": "nM"}, {"measurement": "Tm", "setting": "[5]; 1 mM KCl", "result": 53, "unit": "°C"}, {"measurement": "Tm", "setting": "[5]; 10 mM KCl, calculated from linear fit", "result": "70* ° C."}, {"measurement": "Tm", "setting": "[5]; 180 mM KCl, calculated from linear fit", "result": "92* ° C."}, {"measurement": "IC50 virus-induced cytopathogenicity", "setting": "Junin virus; Junin virus", "result": ">50", "unit": "µg/mL"}, {"measurement": "MCC minimum concentration altering normal cell morphology", "setting": "Junin virus; Junin virus assay", "result": ">50", "unit": "μg/mL"}, {"measurement": "metabolites (n−1, n−2) in plasma", "setting": "[6]", "result": "No metabolites"}, {"measurement": "IC50 virus-induced cytopathogenicity", "setting": "Vaccinia virus; Vaccinia virus", "result": ">200", "unit": "µg/mL"}, {"measurement": "MCC minimum concentration altering normal cell morphology", "setting": "Vaccinia virus; Vaccinia virus assay", "result": 400, "unit": "μg/mL"}, {"measurement": "IC50 virus-induced cytopathogenicity", "setting": "Polio virus-1; Polio virus-1", "result": ">200", "unit": "µg/mL"}, {"measurement": "MCC minimum concentration altering normal cell morphology", "setting": "Polio virus-1; Polio virus-1 assay", "result": "≧400 μg/mL"}, {"measurement": "serum chemistry or urinalysis parameters", "setting": "[7]", "result": "no treatment-related changes"}]}
